One series is described as follows: Solubility. Type of series: physicochemical.
A further series can be described thus: Environmental stability. Type of series: physicochemical.
Series [1] deals with B-cell non-Hodgkin lymphoma. Nature of the series: Single agent clinical study in B-cell non-Hodgkin lymphoma. The series is classed as in vivo. The procedure: As of Sep. […] See U.S. patent application Ser. No. 13/661,678 and International Patent Application No. PCT/US2012/062133, both filed on Oct. 26, 2012, each of which is hereby incorporated by reference in its entirety. […] Studies are ongoing and additional dose levels currently being investigated include: 1000 mg QD, 1250 mg QD, 375 mg BID and 500 mg BID.

For orientation: solubility means how much of the substance goes into solution per volume.

Read-outs that look alike come from different tables or passages of the source.

In the case of `C=CC(=O)Nc1cccc(Nc2nc(Nc3ccc(OCCOC)cc3)ncc2F)c1.O=S(=O)(O)c1ccccc1` [Compound 1 besylate, N-(3-(5-fluoro-2-(4-(2-methoxyethoxyl)phenylamino)pyrimidin-4-ylamino)phenyl)acrylamide besylate], the solubility in the series “Solubility” (ethanol, organic solvent or mixture, read-out: solubility in ethanol) was about 10000 µg/mL; in “Solubility” (water, read-out: solubility in water), about 160 µg/mL. Also, the “environmental instabilities (heat, acid, base)” value in the series “Environmental stability” is “no environmental instabilities”. Further, the “evaluable B-NHL patients with decreased lymph node size” value in series [1] (monotherapy) was “Six of eleven”. Also, the “patients with B-cell non-Hodgkin lymphoma who experienced stable disease” value in series [1] (monotherapy, as of Sep. 11, 2012) is given as 9 out of 17.
In the case of `C=CC(=O)Nc1cccc(Nc2nc(Nc3ccc(OCCOC)cc3)ncc2F)c1` [Compound 1, N-(3-(5-fluoro-2-(4-(2-methoxyethoxyl)phenylamino)pyrimidin-4-ylamino)phenyl)acrylamide], the “maximum tolerated dose (MTD)” value in series [1] (single agent, up to 750 mg PO QD) is “has not yet been reached”.

The values above are taken from US20150139979A1, “METHODS OF TREATING A DISEASE OR DISORDER ASSOCIATED WITH BRUTON'S TYROSINE KINASE” (Celgene Avilomics Research, Inc., priority 2013, published 2015).
